According to ChEMBL document CHEMBL5465560, “Selectivity Literature for EUbOPEN Chemogenomic Library” (2024):

Experiments:
[1] = biological target: Proto-oncogene tyrosine-protein kinase ROS (Homo sapiens) (UniProt P08922); assay: Selectivity interaction (KinomeScan (DiscoverX)) EUB0001049a ROS1; details: at 1 µM
SRSF protein kinase 1 = SRSF protein kinase 1 (Homo sapiens, UniProt Q96SB4); assay: Selectivity interaction (ActivX KiNativ screen (kinase selectivity in THP-1 cell lysates)) EUB0000639a SRPK1; type: subcellular; details: lysate, at 0.04 µM
[2] = biological target: Protein-tyrosine kinase 6 (Homo sapiens, UniProt Q13882)
[3] = test system: Tyrosine-protein kinase ABL1 (Homo sapiens), P00519 [E255K]; assay: (§1) Selectivity interaction (KinomeScan (DiscoverX)) EUB0001079a ABL1; details: at 1 µM
[4] = test system: Tyrosine-protein kinase ABL1 (Homo sapiens), P00519 [F317I]; assay: as §1; details: at 1 µM
[5] = test system: Tyrosine-protein kinase ABL1 (Homo sapiens), P00519 [F317L]; assay: as §1; details: at 1 µM
[6] = test system: Tyrosine-protein kinase ABL1 (Homo sapiens), P00519 [H396P]; assay: as §1; details: at 1 µM
[7] = test system: Tyrosine-protein kinase ABL1 (Homo sapiens), P00519 [M351T]; assay: as §1; details: at 1 µM
[8] = test system: Tyrosine-protein kinase ABL1 (Homo sapiens), P00519 [Q252H]; assay: as §1; details: at 1 µM
[9] = test system: Tyrosine-protein kinase ABL1 (Homo sapiens), P00519 [T315I]; assay: as §1; details: at 1 µM
[10] = test system: Tyrosine-protein kinase ABL1 (Homo sapiens), P00519 [Y253F]; assay: as §1; details: at 1 µM
[11] = biological target: Tyrosine-protein kinase ABL1 (Homo sapiens, UniProt P00519); assay: as §1; details: at 1 µM
[12] = biological target: T1, Mitogen-activated protein kinase kinase kinase 5 (Homo sapiens) (UniProt Q99683); assay: Selectivity interaction (KinomeScan (DiscoverX)) EUB0000618a MAP3K5; details: at 10 µM
T1 sequence (whole entry): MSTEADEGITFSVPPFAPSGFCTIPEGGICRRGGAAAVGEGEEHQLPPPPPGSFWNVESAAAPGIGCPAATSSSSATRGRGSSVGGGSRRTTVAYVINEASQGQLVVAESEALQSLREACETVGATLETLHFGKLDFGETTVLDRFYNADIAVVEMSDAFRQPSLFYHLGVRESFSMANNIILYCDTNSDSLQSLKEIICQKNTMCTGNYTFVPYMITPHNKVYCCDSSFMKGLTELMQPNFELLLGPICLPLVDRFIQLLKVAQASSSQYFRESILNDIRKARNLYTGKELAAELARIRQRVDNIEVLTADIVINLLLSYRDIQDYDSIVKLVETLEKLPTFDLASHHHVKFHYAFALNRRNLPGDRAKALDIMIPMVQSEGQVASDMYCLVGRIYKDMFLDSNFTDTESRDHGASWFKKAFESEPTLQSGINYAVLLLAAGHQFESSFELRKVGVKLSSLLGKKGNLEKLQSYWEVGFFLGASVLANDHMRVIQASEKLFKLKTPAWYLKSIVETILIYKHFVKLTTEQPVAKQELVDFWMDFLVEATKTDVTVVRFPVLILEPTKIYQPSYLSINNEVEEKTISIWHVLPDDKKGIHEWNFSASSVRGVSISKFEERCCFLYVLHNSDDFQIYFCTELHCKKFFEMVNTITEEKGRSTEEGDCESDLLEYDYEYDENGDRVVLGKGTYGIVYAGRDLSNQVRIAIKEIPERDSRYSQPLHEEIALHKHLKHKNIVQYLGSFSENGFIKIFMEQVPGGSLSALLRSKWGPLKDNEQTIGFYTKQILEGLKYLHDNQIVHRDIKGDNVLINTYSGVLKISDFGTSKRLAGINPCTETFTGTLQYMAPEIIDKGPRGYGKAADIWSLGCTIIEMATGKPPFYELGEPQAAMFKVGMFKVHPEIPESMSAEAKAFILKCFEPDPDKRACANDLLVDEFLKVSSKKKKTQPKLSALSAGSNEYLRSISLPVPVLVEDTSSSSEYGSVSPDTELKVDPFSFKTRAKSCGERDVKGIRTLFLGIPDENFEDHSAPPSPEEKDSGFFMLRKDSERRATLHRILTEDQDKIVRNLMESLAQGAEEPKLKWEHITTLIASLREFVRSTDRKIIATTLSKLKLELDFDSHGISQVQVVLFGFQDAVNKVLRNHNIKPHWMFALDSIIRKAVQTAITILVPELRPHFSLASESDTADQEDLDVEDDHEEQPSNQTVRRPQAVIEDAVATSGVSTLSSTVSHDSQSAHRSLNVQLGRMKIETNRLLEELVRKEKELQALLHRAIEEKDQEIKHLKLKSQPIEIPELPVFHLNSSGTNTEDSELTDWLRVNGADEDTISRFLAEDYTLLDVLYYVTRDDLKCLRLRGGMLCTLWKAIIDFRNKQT

[13] = biological target: T2, Tyrosine-protein kinase ZAP-70 (Homo sapiens) (UniProt P43403); assay: Selectivity interaction (KinomeScan (DiscoverX)) EUB0000666a ZAP70; details: at 10 µM
T2 sequence (whole entry): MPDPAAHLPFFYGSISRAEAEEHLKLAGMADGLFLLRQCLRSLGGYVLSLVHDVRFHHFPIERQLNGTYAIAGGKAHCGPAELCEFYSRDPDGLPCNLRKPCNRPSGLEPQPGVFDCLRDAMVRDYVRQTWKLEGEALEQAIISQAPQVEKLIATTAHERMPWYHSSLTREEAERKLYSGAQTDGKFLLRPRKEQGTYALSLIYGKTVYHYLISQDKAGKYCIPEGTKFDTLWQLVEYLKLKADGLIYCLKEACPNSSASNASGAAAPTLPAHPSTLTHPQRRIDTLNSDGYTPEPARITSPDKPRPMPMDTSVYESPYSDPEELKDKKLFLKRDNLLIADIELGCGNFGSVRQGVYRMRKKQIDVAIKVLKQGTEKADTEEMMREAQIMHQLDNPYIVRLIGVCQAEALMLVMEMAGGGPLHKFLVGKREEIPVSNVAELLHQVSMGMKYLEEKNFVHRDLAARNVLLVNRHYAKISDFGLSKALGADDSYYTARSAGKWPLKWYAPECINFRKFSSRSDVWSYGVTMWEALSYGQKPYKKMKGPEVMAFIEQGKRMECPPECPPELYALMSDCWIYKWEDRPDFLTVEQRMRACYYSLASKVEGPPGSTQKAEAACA

Proto-oncogene tyrosine-protein kinase ROS (Homo sapiens), sequence (P08922 whole entry): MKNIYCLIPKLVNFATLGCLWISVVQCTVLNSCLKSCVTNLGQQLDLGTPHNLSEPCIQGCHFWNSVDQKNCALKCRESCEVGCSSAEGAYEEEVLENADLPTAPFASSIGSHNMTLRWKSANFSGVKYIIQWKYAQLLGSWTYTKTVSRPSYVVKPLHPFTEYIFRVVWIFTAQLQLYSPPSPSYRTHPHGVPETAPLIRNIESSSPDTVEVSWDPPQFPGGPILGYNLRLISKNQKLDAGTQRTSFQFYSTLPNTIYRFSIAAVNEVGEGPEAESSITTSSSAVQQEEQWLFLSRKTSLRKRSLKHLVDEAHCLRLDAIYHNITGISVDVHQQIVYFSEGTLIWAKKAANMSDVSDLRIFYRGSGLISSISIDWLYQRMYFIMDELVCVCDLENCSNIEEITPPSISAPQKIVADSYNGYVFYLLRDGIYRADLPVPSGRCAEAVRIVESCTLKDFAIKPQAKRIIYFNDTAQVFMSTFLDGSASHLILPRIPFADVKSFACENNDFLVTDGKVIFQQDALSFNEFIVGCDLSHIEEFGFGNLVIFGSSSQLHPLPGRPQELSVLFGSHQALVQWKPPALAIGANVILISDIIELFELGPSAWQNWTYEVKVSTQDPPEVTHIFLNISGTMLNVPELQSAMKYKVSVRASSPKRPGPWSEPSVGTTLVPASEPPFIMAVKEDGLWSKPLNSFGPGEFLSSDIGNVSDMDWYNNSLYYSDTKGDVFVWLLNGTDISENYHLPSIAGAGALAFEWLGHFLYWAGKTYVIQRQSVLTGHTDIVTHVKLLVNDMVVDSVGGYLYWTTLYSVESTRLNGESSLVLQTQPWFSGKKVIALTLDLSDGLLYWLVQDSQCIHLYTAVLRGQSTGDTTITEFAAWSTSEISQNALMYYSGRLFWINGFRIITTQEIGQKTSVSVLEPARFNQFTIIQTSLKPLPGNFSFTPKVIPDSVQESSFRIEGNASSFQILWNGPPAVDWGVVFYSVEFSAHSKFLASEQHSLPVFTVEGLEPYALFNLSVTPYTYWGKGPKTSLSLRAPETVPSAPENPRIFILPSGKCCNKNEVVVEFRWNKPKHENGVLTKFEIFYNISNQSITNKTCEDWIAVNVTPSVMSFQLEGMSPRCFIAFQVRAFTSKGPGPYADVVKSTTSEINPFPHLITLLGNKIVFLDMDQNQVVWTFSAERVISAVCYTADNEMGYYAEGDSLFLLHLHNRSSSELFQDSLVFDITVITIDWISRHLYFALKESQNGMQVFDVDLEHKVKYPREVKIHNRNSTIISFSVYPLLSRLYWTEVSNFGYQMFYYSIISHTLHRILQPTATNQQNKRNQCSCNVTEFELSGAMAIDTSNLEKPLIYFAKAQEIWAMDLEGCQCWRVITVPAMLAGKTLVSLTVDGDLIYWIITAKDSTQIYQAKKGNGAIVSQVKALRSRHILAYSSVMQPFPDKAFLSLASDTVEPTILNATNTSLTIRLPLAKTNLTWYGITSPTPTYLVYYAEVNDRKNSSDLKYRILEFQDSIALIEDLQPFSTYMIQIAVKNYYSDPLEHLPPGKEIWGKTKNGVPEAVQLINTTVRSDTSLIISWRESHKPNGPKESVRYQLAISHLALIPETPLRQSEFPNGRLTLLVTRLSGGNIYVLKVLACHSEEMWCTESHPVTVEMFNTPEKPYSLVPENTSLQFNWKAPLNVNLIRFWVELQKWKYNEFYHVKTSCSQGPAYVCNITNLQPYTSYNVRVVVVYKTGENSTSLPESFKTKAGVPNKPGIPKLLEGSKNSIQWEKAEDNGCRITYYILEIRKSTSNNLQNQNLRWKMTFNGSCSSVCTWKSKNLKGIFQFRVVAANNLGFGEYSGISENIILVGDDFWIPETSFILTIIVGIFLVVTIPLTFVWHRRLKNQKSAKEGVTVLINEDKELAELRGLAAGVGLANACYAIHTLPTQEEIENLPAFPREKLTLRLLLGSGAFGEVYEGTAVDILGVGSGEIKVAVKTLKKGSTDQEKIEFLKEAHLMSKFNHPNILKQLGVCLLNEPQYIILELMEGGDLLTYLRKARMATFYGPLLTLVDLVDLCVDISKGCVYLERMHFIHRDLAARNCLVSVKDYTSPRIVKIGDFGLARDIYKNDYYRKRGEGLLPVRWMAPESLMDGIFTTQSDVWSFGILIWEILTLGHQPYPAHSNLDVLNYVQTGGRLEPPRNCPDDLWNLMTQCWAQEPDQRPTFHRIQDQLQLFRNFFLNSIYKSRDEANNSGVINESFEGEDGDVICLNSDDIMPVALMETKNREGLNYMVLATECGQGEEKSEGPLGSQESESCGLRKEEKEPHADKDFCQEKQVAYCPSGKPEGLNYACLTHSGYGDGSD
SRSF protein kinase 1, sequence (Q96SB4 whole entry): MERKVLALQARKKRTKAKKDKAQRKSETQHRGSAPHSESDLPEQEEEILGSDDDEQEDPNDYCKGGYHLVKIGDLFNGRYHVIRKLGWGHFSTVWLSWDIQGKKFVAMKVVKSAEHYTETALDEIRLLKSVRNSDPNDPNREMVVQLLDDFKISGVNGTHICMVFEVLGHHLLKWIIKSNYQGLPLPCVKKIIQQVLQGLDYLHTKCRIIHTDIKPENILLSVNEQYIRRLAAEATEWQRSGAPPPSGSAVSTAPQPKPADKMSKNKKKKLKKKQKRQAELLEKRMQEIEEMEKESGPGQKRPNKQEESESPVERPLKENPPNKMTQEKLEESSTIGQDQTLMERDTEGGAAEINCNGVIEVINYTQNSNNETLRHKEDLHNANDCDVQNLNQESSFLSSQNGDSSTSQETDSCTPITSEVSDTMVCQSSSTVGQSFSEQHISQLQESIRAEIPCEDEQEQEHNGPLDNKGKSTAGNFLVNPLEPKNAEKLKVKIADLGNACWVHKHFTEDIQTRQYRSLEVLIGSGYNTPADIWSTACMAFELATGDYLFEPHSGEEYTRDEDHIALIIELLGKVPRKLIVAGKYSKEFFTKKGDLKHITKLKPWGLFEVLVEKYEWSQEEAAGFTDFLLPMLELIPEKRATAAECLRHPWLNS
Protein-tyrosine kinase 6, sequence (Q13882 whole entry): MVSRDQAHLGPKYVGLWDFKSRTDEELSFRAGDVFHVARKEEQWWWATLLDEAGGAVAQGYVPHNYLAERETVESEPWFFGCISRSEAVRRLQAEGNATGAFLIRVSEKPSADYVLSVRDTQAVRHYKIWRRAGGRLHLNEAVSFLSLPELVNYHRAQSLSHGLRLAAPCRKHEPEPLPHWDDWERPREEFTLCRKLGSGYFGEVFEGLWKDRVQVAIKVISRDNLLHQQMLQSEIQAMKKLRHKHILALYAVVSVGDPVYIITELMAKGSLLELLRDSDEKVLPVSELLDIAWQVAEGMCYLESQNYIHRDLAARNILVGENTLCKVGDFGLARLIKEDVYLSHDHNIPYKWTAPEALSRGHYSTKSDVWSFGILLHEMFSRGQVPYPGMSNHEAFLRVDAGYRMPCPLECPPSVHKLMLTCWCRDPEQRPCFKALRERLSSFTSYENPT

How did the % of control [1] turn out when `COc1cc(Nc2nc(C)cc(-c3cnn4nc(OC)ccc34)n2)cc(C(F)(F)F)c1` was run?
The % of control was 91%.

`CC[C@@H]1[C@H](F)C(=O)N[C@@H]1COc1nccc2cc(C(N)=O)c(OC)cc12` [ZIMLOVISERTIB] was tested. Which % of inhibition (SRSF protein kinase 1) did it give?
Its % of inhibition is 6%.

For `CCc1cccc(CC)c1NC(=O)c1nn(C)c2c1CCc1cnc(Nc3ccc(C(=O)NC4CCN(C)CC4)cc3OC(F)(F)F)nc1-2`, which IC50 [2] is on record?
The IC50 was greater than 10 µM.

Which % of control [3] does the source give for `Nc1cnc(N2CCc3cc(S(=O)(=O)Nc4c(F)cc(Cl)cc4F)cc(N4CCCC4=O)c32)nc1` [TP-020n] here?
Its % of control is 85%.

What about the % of control [4] of the same molecule?
Its % of control is 100%.

What about the % of control [5] of the same molecule?
Its % of control is 99%.

What about the % of control [6] of the same molecule?
Its % of control is 94%.

What about the % of control [7] of the same molecule?
The % of control was 100%.

What about the % of control [8] of the same molecule?
Its % of control is 100%.

What about the % of control [9] of the same molecule?
The % of control was 100%.

And the % of control [10]?
Its % of control is 94%.

And the % of control [11]?
Its % of control is 100%.

For `O[C@H]1CC[C@H](Nc2ncc3nc(Nc4c(F)cc(F)cc4F)n([C@H]4CCOC4)c3n2)CC1`, which % of control [12] is on record?
Its % of control is 100%.

Which % of control [13] does the source give for `O=C(NOC[C@H](O)CO)c1ccc(F)c(F)c1Nc1ccc(I)cc1F` here?
The % of control was 89%.
